Results published in patent US8574856B2, “Methods for determining the efficiency of a therapeutic” (Companion Diagnostics Inc., priority 2010, dated 2013).
Where “and” joins values, the source holds several entries; their conditions need not be identical. Equal values may be shown once.

Key:
peroxidase = assay: Peroxidase assay in saliva (Amplex Red); format: biochemical; conditions: 500 ppm; pooled or unpooled saliva; 30 minutes; FIGS. 30-33
Experimental: To determine the effect of various GRAS compounds as inhibitors of peroxidase activity, a standard assay using Amplex® Red (Life Technologies), which releases a fluorescent oxidation product.
The test compounds, such as GRAS materials or cocktails of same, were prepared at a concentration of 500 ppm in distilled water. For the assay, 50 μl samples of test compounds were mixed with 20-30 μl of saliva (either “pooled” or “unpooled”) prior to the addition of Amplex® Red. […] Reactions were allowed to run for 30 minutes during these assays.

galactose oxidase = conditions: dilute (3.5%) saliva; FIG. 17
lysozyme = target: T1, lysozyme (Homo sapiens, UniProt P61626); assay: Lysozyme inhibition saliva screening, dilute (3.5%) saliva; format: biochemical; conditions: FIG. 16
T1 sequence (P61626 19-148): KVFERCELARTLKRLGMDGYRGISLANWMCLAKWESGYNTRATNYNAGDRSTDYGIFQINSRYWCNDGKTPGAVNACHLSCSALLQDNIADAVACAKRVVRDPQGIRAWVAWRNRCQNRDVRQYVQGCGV
From the text: Further details of these five compounds may also be seen in Table 5.

α-amylase [1] = target: T2, α-amylase (Homo sapiens, UniProt P0DUB6); conditions: 100% saliva samples; FIG. 15
T2 sequence (P0DUB6 16-511): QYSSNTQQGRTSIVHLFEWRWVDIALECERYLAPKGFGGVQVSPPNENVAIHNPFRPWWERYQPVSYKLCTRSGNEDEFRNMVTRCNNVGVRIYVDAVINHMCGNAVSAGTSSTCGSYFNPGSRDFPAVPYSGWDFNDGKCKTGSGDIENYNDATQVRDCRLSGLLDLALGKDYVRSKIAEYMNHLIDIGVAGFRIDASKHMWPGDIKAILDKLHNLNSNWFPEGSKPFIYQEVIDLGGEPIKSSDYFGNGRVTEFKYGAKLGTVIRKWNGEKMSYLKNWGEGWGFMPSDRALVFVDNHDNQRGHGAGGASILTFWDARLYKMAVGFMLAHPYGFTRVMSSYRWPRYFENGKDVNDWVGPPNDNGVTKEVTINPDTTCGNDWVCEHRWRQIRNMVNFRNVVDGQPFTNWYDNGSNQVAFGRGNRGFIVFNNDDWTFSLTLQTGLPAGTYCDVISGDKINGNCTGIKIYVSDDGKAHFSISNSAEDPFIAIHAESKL
From the text: Enzymatic activity of α-amylase on the substrate yields 2-chloro-p-nitrophenol, which can be measured spectrophotometrically at 405 nm. The amount of α-amylase activity present in the experimental sample is directly proportional to the increase in absorbance at 405 nm.

α-amylase [2] = target: T2, α-amylase; assay: α-Amylase inhibition saliva screening, dilute (3.5%) saliva; format: biochemical; conditions: for absorbance at 405 nm, Ave / absorbance at 405 nm, single readings: test compound prepared at 5,000 ppm, 37° C.; for α-Amylase Inhibitor Activity: dilute (3.5%) saliva, FIG. 14
From the text: Further details of these five compounds may also be seen in Table 4.

Row | Compound | peroxidase inhibition (peroxidase) | Galactose Oxidase Inhibitor Activity (galactose oxidase) | Lysozyme Inhibitor Activity (lysozyme) | inhibition of α-Amylase (α-amylase [1]) | absorbance at 405 nm, Ave (α-amylase [2]; 0 min) | absorbance at 405 nm, Ave (α-amylase [2]; 5 min) | absorbance at 405 nm, Ave (α-amylase [2]; 15 min) | α-Amylase Inhibitor Activity (α-amylase [2]) | also measured
1 | Cn1c(=O)c2c(ncn2C)n(C)c1=O [CDI-33, Caffeine] | showed significant peroxidase inhibition capabilities | – | – | – | – | – | – | – | –
2 | COc1ccc(O)c(C(C)(C)C)c1 [CDI-39, 3-tert--butyl-hydroxyanisole] | showed significant peroxidase inhibition capabilities | shown to have Galactose Oxidase Inhibitor Activity | – | – | – | – | – | – | –
3 | O=C(O)c1ccccc1 [CDI-40, Benzoic acid] | – | shown to have Galactose Oxidase Inhibitor Activity | shown to have Lysozyme Inhibitor Activity | – | – | – | – | – | –
4 | CC(=O)O [CDI-47, Acetic acid] | – | shown to have Galactose Oxidase Inhibitor Activity | shown to have Lysozyme Inhibitor Activity | – | – | – | – | – | –
5 | Aluminum potassium sulfate dodecahydrate [CDI-42] | showed significant peroxidase inhibition capabilities | shown to have Galactose Oxidase Inhibitor Activity | – | shown to inhibit α-Amylase | 0.92 | 1.85 | 2.29 | shown to have α-Amylase Inhibitor Activity | absorbance at 405 nm, single readings (α-amylase [2]; 0 min): 0.80 and 0.90 and 0.84; absorbance at 405 nm, single readings (α-amylase [2]; 5 min): 1.80
6 | Aluminum sulfate hydrate [CDI-34] | – | – | – | shown to inhibit α-Amylase | 0.40 | 0.50 | 0.56 | shown to have α-Amylase Inhibitor Activity | absorbance at 405 nm, single readings (α-amylase [2]; 0 min, sulfate hydrate): 0.40 and 0.36 and 0.45; absorbance at 405 nm, single readings (α-amylase [2]; 5 min, sulfate hydrate): 0.49 and 0.50 and 0.52; absorbance at 405 nm, single readings (α-amylase [2]; 15 min, sulfate hydrate): 0.53 and 0.61 and 0.54 and 0.56
